Measured values published in patent US20260315499A1, “2'- {HETEROCYCLYL (ARYL/ALKYL) METHYL} - CANNABIDIOL COMPOUNDS AND PROCESS FOR PREPARATION THEREOF” (COUNCIL OF SCIENTIFIC & INDUSTRIAL RESEARCH, priority 2023, published 2026).
Values joined by “and” are separate entries in the source; they are usually repeats but may differ in a detail not shown here. Equal entries are not always repeated.

What was measured:
p-AKT 473 = assay: Survival pathway protein expression by western blotting in SHSY5Y; assay type: cell-based, human; settings: 6 hrs
Description: (§1) Here, A1 was tested to find its role in eliciting survival pathway proteins in differentiated human neuroblastoma cells in concentration and time dependent manner.
To investigate the effect of A1 on the survival proteins, […] of survival proteins, including p-Erk 44/42, p-AKT 473, Anti BDNF, and p TrkB 816 and p TrKB 515 by western blotting.

p TrkB 816 [1] = assay: as above; assay type: cell-based, human; settings: DHF/Cort., 6 hrs
[2] = tested on: differentiated SHSY5Y cell cultures; assay: Neuroprotective potential in differentiated SHSY5Y after 96 hrs, concentration series with and without corticosterone; assay type: cell-based, human; settings: DHF 5 nM + Cort 400 μM, 96 hrs
Excerpt: Furthermore, A1 intervention in presence of corticosterone evidenced neuroprotective effect against corticosterone induced impairment and cell death.

Anti BDNF = assay: Survival pathway protein expression by western blotting in SHSY5Y; assay type: cell-based, human; settings: 6 hrs
Description: as §1
(§2) To investigate the effect of A1 on the survival proteins, SHSY5Y cell cultures were treated with different concentrations for 6 hrs and analyzed for the expression of survival proteins, including p-Erk 44/42, p-AKT 473, Anti BDNF, and p TrkB 816 and p TrKB 515 by western blotting.

p-Erk 44/42 = assay: as above; assay type: cell-based, human; settings: 6 hrs
Description: as §1, §2

p TrkB 816 [3] = assay: as above; assay type: cell-based, human; settings: DHF 5 nM, 6 hrs
Description: as §1, §2

p TrkB 515 [4] = assay: as above; assay type: cell-based, human; settings: DHF 5 nM, 6 hrs
Description: as §1, §2

p TrkB 515 [5] = assay: as above; assay type: cell-based, human; settings: DHF/Cort., 6 hrs
[6] = tested on: differentiated SHSY5Y cell cultures; assay: Neuroprotective potential in differentiated SHSY5Y after 96 hrs, concentration series with and without corticosterone; assay type: cell-based, human; settings: DHF 5 nM, without Cort, 96 hrs
depression mice model [7] = assay: In vivo corticosterone induced depression model: sucrose preference test; parameters: species or system mouse (male C57); settings: 2% sucrose, 21 days
Description: (§3) In vivo efficacy (ameliorates behavioral despair) of A1 in corticosterone induced model of stress (J. Neurochem., 2018 146, 722 734). […] A1 (20 mg/kg, oral) dissolved in normal saline was given for 3 consecutive weeks following corticosteroid stress. The sucrose preference test was employed, tail suspension test, and forced swim test to evaluate behavioral distress. We noticed that A1 can resurrect mice in stressful situations. […]
Sucrose consumption was employed to evaluate anhedonia, a core hallmark of depression in mice. The animals were allowed unfettered access to both identical bottles, one containing water while the other contained a 2% solution of sucrose, for 21 days.
The below equation was later employed to determine water and sugar consumed by mice:
Sucrose Preference=Sucrose consumed[…]/Total fluid intake.

depression mice model [8] = assay: In vivo corticosterone induced depression model: Forced Swim Test; parameters: species or system mouse (male C57)
Description: as §3
The forced swim test was employed to evaluate behavioral melancholy in depressed subjects. Each animal was individually conditioned in a glass cylinder 20 cm long, 10 cm deep and 14 cm radius of curvature. After being submerged in water for 5 mins, the mice's cumulative stationary episode, struggle in water, and eventual floating condition were evaluated. The duration for which the animals were motionless while attempting to hold both of their front limbs still was calculated by interpreting the visualizations portraying behavioral despair (Front Behav Neurosci., 2018, 12, 42).

[9] = In vivo corticosterone induced depression model: effect on body weight; parameters: species or system mouse (male C57); settings: A1 20 mg/kg oral, fluoxetine 18 mg/kg, 21 days
Description: as §3

depression mice model [10] = assay: In vivo corticosterone induced depression model: Tail Suspension Test (TST); parameters: species or system mouse (male C57); settings: A1 20 mg/kg, fluoxetine 18 mg/kg
Description: A1 (20 mg/kg, oral) dissolved in normal saline was given for 3 consecutive weeks following corticosteroid stress. The sucrose preference test was employed, tail suspension test, and forced swim test to evaluate behavioral distress.
Tail Suspension Test (TST) is a behavioral test employed to assess perturbations expected to influence depression like phenotypes. TST is grounded on the reflection that the extent of immobility is allied with depressing phenotype of mice overturned by antidepressants. Mice were positioned 2 cm from their tail tips and 5 cm above the ground suspending the tails using adhesive tape for the free movement (Acta Neuropathol Commun., 2016, 4(1), 108).
The contemporary immobility was alluded to as interruption in motion, where a blind assessor evaluates the disappointed aspect of display before scoring it.

O=c1cc(-c2ccccc2)oc2c(O)c(O)ccc12 [DHF, reference compound]
Relative Protein Expression PAKT 473 (p-AKT 473; DHF 5 nM): 1.42 | Relative Protein Expression PAKT 473 (p-AKT 473; DHF/Cort.): 0.96 | Relative Protein Expression p TrkB 816 (p TrkB 816 [1]): 0.71 | Cell viability [2]: 104.3 | Relative Protein Expression Anti BDNF (Anti BDNF; DHF 5 nM): 1.03 | Relative Protein Expression Anti BDNF (Anti BDNF; DHF/Cort.): 0.53 | Relative Protein Expression p ERK 44/42 (p-Erk 44/42; DHF 5 nM): 5.28 | Relative Protein Expression p ERK 44/42 (p-Erk 44/42; DHF/Cort.): 5.00 | Relative Protein Expression p TrkB 816 (p TrkB 816 [3]): 1.55 | Relative Protein Expression p TrkB 515 (p TrkB 515 [4]): 2.43 | Relative Protein Expression p TrkB 515 (p TrkB 515 [5]): 2.11 | Cell viability [6]: 113.7

CNCCC(Oc1ccc(C(F)(F)F)cc1)c1ccccc1 (stereo not shown) [Fluoxetine]
% Sucrose consumption (ml) ± SD (depression mice model [7]; with Cort.): 72.39 ± 2.69% | % Sucrose consumption (ml) ± SD (depression mice model [7]; without Cort.): 82.10 ± 0.29% | % Immobility (sec) ± SD (dead time) (depression mice model [8]; with Cort.): 47.84 ± 10.33 s | % Latency to immobility (sec) ± SD (depression mice model [8]; with Cort.): 34.06 ± 11.21 s | % Immobility (sec) ± SD (dead time) (depression mice model [8]; with Cort., listed as fluoxetine): 47.84 ± 10.33 s | % Immobility (sec) ± SD (dead time) (depression mice model [8]; without Cort.): 22.39 ± 4.91 s | % Latency to immobility (sec) ± SD (depression mice model [8]; without Cort.): 55.34 ± 15.71 s | Weight (g) ± SD ([9]; with Cort. 35 μg/ml): 38 ± 2.16 g | Weight (g) ± SD ([9]; without Cort.): 40.42 ± 2.25 g | % Latency to immobility (sec) ± SD (depression mice model [10]; with Cort. 35 μg/ml): 34.79 ± 6.38 s | % Latency to immobility (sec) ± SD (depression mice model [10]; with Cort. 35 μg/ml, listed as fluoxetine): 34.79 ± 6.38 s | % Immobility (sec) ± SD (dead time) (depression mice model [10]; without Cort.): 19.61 ± 7.90 s and 19.61 s | % Latency to immobility (sec) ± SD (depression mice model [10]; without Cort.): 49.51 ± 7.84 s and 49.51 ± 7.82 s
